According to US10112926B2 (priority 2014, dated 2018):
Counter-ions that a name gives are not always drawn.

Each compound was assayed against Vps34 (Homo sapiens (Human), UniProt Q8NEB9). Conditions: read-out: Assay C VPS34 IC50.
Sequence of Vps34 (Q8NEB9 whole entry): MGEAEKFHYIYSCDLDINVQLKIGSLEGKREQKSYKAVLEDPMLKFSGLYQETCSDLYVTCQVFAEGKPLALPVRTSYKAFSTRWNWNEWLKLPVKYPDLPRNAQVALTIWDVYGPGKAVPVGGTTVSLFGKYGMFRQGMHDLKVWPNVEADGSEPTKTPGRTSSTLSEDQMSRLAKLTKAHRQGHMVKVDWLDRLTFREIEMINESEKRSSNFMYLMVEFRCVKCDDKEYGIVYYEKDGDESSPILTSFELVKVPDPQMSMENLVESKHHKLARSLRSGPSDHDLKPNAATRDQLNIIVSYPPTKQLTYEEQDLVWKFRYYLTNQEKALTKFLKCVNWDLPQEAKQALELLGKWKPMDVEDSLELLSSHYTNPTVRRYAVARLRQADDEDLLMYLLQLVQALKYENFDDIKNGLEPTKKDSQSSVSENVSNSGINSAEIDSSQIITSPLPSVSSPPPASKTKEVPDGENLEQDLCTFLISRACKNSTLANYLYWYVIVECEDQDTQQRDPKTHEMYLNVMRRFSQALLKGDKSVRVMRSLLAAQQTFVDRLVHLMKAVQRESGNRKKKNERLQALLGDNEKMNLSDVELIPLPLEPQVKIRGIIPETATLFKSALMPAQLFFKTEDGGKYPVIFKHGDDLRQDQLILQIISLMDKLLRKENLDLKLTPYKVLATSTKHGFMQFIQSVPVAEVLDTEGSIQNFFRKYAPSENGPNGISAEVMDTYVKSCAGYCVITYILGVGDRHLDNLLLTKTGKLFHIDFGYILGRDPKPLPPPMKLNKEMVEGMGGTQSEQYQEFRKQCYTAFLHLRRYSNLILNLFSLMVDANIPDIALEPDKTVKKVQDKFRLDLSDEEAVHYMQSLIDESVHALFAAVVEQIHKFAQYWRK

| SMILES | IC50 [µM] |
| --- | --- |
| Cc1cc(-c2cc(-c3cc(S(=O)(=O)N4CCCC(C)(O)CC4)ccc3C)cnc2N)on1 (stereo not drawn) [Example 19.21, 1-((3-(6-amino-5-(3-methylisoxazol-5-yl)pyridin-3-yl)-4-methylphenyl)sulfonyl)-4-methylazepan-4-ol trifluoroacetic acid salt] | > 10 |
| Cc1cc(-c2cc(-c3cc(S(=O)(=O)N[C@@H]4CNC[C@H]4O)ccc3C)cnc2N)on1 [Example 19.4, 3-(6-amino-5-(3-methylisoxazol-5-yl)pyridin-3-yl)-N-(trans-4-hydroxypyrrolidin-3-yl)-4-methylbenzenesulfon-amide acetic acid salt] | > 10 |
| Cc1ncc(-c2cc(-c3cc(S(=O)(=O)NCC(C)(C)O)ccc3C)cnc2N)o1 [Example 6, 3-(6-Amino-5-(2-methyloxazol-5-yl)pyridin-3-yl)-N-(2-hydroxy-2-methylpropyl)-4-methylbenzenesulfonamide] | > 10 |
| Cc1cc(-c2cc(-c3cc(S(=O)(=O)NCC4(O)CCOCC4)ccc3C)cnc2N)on1 [Example 54, 3-(6-Amino-5-(3-methylisoxazol-5-yl)pyridin-3-yl)-N-((4-hydroxytetrahydro-2H-pyran-4-yl)methyl)-4-methylbenzenesulfonamide] | > 10 |
| CCN1CCC[C@H]1CNS(=O)(=O)c1ccc(C)c(-c2cnc(N)c(-c3cc(C)no3)c2)c1 [Example 37.33, (S)-3-(6-Amino-5-(3-methylisoxazol-5-yl)pyridin-3-yl)-N-((1-ethylpyrrolidin-2-yl)methyl)-4-methylbenzenesulfonamide] | > 10 |
| Cc1noc(-c2cc(-c3cc(S(=O)(=O)NC[C@H]4CCOC4)ccc3C)cnc2N)n1 [Example 86, (R)-3-(6-Amino-5-(3-methyl-1,2,4-oxadiazol-5-yl)pyridin-3-yl)-4-methyl-N-((tetrahydrofuran-3-yl)methyl)benzenesulfonamide] | > 10 |
| Cc1cc(-c2cc(-c3cc(S(=O)(=O)NCCC4(O)CCCCC4)ccc3C)cnc2N)on1 [Example 37.30, 3-(6-Amino-5-(3-methylisoxazol-5-yl)pyridin-3-yl)-N-(2-(1-hydroxycyclohexyl)ethyl)-4-methylbenzenesulfonamide] | > 10 |
| Cc1cc(-c2cc(-c3cc(S(=O)(=O)N4CC[C@@H](O)C4)ccc3C)cnc2N)on1 [Example 37.24, (R)-1-((3-(6-Amino-5-(3-methylisoxazol-5-yl)pyridin-3-yl)-4-methylphenyl)sulfonyl)pyrrolidin-3-ol] | > 10 |
| Cc1cnc(-c2cc(-c3cc(S(=O)(=O)NCC(C)(C)O)ccc3C)cnc2N)s1 [Example 90, 3-(6-Amino-5-(5-methylthiazol-2-yl)pyridin-3-yl)-N-(2-hydroxy-2-methylpropyl)-4-methylbenzenesulfonamide] | > 10 |
| Cc1ccc(S(=O)(=O)NOCC(C)(C)O)cc1-c1cnc(N)c(-c2cnn(CC(F)(F)F)c2)c1 [Example 34, 3-(6-Amino-5-(1-(2,2,2-trifluoroethyl)-1H-pyrazol-4-yl)pyridin-3-yl)-N-(2-hydroxy-2-methylpropoxy)-4-methylbenzenesulfonamide hydrochloride] | > 10 |
| Cc1ncc(-c2cc(-c3cc(S(=O)(=O)NCC4CC(O)C4)ccc3C)cnc2N)o1 (stereo not drawn) [Example 104.1, 3-(6-amino-5-(2-methyloxazol-5-yl)pyridin-3-yl)-N-((3-hydroxycyclobutyl)methyl)-4-methylbenzenesulfon-amide] | 1.1 |
| Cc1cc(-c2cc(-c3cc(S(=O)(=O)NCC4(O)CCCC4)ccc3C)cnc2N)on1 [Example 53, 3-(6-Amino-5-(3-methylisoxazol-5-yl)pyridin-3-yl)-N-((1-hydroxycyclopentyl)methyl)-4-methylbenzenesulfonamide] | > 10 |
| Cc1ncc(-c2cc(-c3cc(S(=O)(=O)NCC4(CO)COC4)ccc3C)cnc2N)s1 [Example 68, 3-(6-Amino-5-(2-methylthiazol-5-yl)pyridin-3-yl)-N-((3-(hydroxymethyl)oxetan-3-yl)methyl)-4-methylbenzenesulfonamide] | 8.4 |
| Cc1cc(-c2cc(-c3cc(S(=O)(=O)NCC4(O)CCCCC4)ccc3C)cnc2N)on1 [Example 37.9] | > 10 |
| Cc1ccc(S(=O)(=O)NCC(C)(C)O)cc1-c1cnc(N)c(-c2cnco2)c1 [Example 94a, 3-(6-amino-5-(oxazol-5-yl)pyridin-3-yl)-N-(2-hydroxy-2-methylpropyl)-4-methylbenzenesulfonamide] | > 10 |
| Cc1ncc(-c2cc(-c3cc(S(=O)(=O)NCCCO)ccc3C)cnc2N)o1 [Example 104.6, 3-(6-amino-5-(2-methyloxazol-5-yl)pyridin-3-yl)-N-(3-hydroxypropyl)-4-methylbenzenesulfon-amide] | 1.9 |
| Cc1cc(-c2cc(-c3cc(S(=O)(=O)N4CCOC[C@@H]4C)ccc3C)cnc2N)on1 [Example 19.5, (S)-5-(2-methyl-5-((3-methylmorpholino)sulfon-yl)phenyl)-3-(3-methylisoxazol-5-yl)pyridin-2-amine trifluoroacetic acid salt] | > 10 |
| CCN1CCC[C@@H]1CNS(=O)(=O)c1ccc(C)c(-c2cnc(N)c(-c3cc(C)no3)c2)c1 [Example 37.27, (R)-3-(6-Amino-5-(3-methylisoxazol-5-yl)pyridin-3-yl)-N-((1-ethylpyrrolidin-2-yl)methyl)-4-methylbenzenesulfonamide] | > 10 |
| Cc1cc(-c2cc(-c3cc(S(=O)(=O)NCC4(CO)COC4)ccc3C)cnc2N)on1 [Example 50, 3-(6-Amino-5-(3-methylisoxazol-5-yl)pyridin-3-yl)-N-((3-(hydroxymethyl)oxetan-3-yl)methyl)-4-methylbenzenesulfonamide] | > 10 |
| Cc1cc(-c2cc(-c3cc(S(=O)(=O)NC4CCOCC4)ccc3C)cnc2N)on1 [Example 37.8, 3-(6-Amino-5-(3-methylisoxazol-5-yl)pyridin-3-yl)-4-methyl-N-(tetrahydro-2H-pyran-4-yl)benzenesulfonamide] | > 10 |
| Cc1cc(-c2cc(-c3cc(S(=O)(=O)NCCC4(O)CCCC4)ccc3C)cnc2N)on1 [Example 37.16, 3-(6-Amino-5-(3-methylisoxazol-5-yl)pyridin-3-yl)-N-(2-(1-hydroxycyclopentyl)ethyl)-4-methylbenzenesulfonamide] | > 10 |
| Cc1cc(-c2cc(-c3cc(S(=O)(=O)NCC4(CO)CCCC4)ccc3C)cnc2N)on1 [Example 37.23, 3-(6-Amino-5-(3-methylisoxazol-5-yl)pyridin-3-yl)-N-((1-(hydroxymethyl)cyclopentyl)methyl)-4-methylbenzenesulfonamide] | > 10 |
| Cc1ccc(S(=O)(=O)NCC(C)(C)O)cc1-c1cnc(N)c(-c2cnn(C)c2C)c1 [Example 61, 3-(6-Amino-5-(1,5-dimethyl-1H-pyrazol-4-yl)pyridin-3-yl)-N-(2-hydroxy-2-methylpropyl)-4-methylbenzenesulfonamide] | > 10 |
| Cc1cc(-c2cc(-c3cc(S(=O)(=O)N[C@H]4CC[C@H](N)CC4)ccc3C)cnc2N)on1 [Example 19.3, 3-(6-amino-5-(3-methylisoxazol-5-yl)pyridin-3-yl)-N-(trans-4-aminocyclohexyl)-4-methylbenzenesulfon-amide acetic acid salt] | > 10 |
